# Key:
# [1] = system: NZBWF1/J lupus mouse model; assay: Efficacy in NZBWF1/J lupus model; type: in vivo; settings: for Blood urea nitrogen (BUN) level: day 96, serum
# Procedure: […] NZBWF1 female mice at 26 weeks of age were randomized into 7 groups with 10 mice per group, based on proteinuria level, anti-dsDNA IgG level and body weight. […] Treatments were administered by oral gavage (p.o.) in a volume of 10 ml/kg body weight.
# Mice were also being monitored daily for clinical signs of toxicity for the duration of the study. Body weight for each animal was recorded twice per week and proteinuria was measured weekly. Proteinuria was assessed using URIT 1 vp strips, and was scored on a 0-4 scale with scored as follows: 0=trace, 1≥30 mg/dL, 2≥100 mg/dL, 3≥300 mg/dL, and 4≥500 mg/dL.
# On the day 96th of treatment, blood was collected quickly by the heart punctures under carbon dioxide euthanasia. The 300-500 μL blood was transferred to the coagulation tube, and the upper serum samples were separated by centrifuge at 2,000 g for 10 minutes, and then stored in the refrigerator at −80° C. for later use. 110 μL serum was used for the detection of blood urea nitrogen level, and 25 μL serum was used for measurement of TNFα and IL-10 levels by Luminex.
# The kidney was removed and fixed with 10% neutral buffer formalin solution. The tissue was taken from the modified block, dehydrated with alcohol step by step, embedded in paraffin, sectioned by slide slicer (about 3 μm thick), stained with hematoxylin-cosin (HE), and examined by light microscopy for pathological changes of the kidney tissue. Sections were blindly scored as the sum of three systems, including inflammation (0-4), glomerular damage (0-4), and sclerosis (0-4).
# SLE-cGVHD mouse model = assay: Efficacy in systemic lupus erythematosus like chronic graft-versus-host-disease (SLE-cGVHD) model; type: in vivo
# Procedure: Splenocytes from DBA/2 mice were transplanted into 54 B6D2F1 mice intravenously at day −7 and day 0. 48 animals were randomly divided into 4 groups of 12 animals each group according to the inoculation order. Treatment was initiated the next day after randomization until the end of the 26th day. […] Treatments were administered by oral gavage (p.o.) in a volume of 10 ml/kg body weight.
# Mice were monitored daily for clinical signs of toxicity for the duration of the study. Body weight for each animal was recorded twice per week. On day 15th of treatment, blood was collected from the orbital venous sinus under isoflurane/oxygen anesthesia and the serum samples were prepared. An anti-ds DNA IgG ELISA kit (Chondrex, Inc., Cat. 3031) was used to quantitate anti-ds DNA IgG levels in sera from individual mice.
# On day 8th, b 15th and 22th of treatment, proteinuria was assessed by determination of urine albumin using URIT 1 vp strips (URIT, China), and was scored on a 0-4 scale with scored as follows: 0=trace, 1≥30 mg/dL, 2≥100 mg/dL, 3≥300 mg/dL, and 4≥500 mg/dL.
# The difference between the mean values of proteinuria level, spleen-index and anti-ds DNA IgG level in treatment and vehicle group was analyzed for significance using One-way ANOVA (followed by Dunnett's test). P<0.05 was considered statistically significant.
# [2] = Plasma drug exposure at steady state in SLE-cGVHD mice; type: in vivo, mouse; settings: day 26, 10 and 20 mg/kg BID oral
# Procedure: Plasma was collected by centrifugation at 5, 600 rpm for 7 minutes. Bioanalysis was conducted at 3D BioOptima Co., Ltd. (Suzhou, China).
# [3] = system: MRL/MpJ-Fas^lpr/J (MRL/lpr) mouse model; assay: Efficacy in MRL/MpJ-Fas^lpr/J (MRL/lpr) lupus model; type: in vivo
# Procedure: MRL/MpJ-Fas^lpr/J (MRL/lpr) mice purchased from Jackson laboratories were randomized into 6 groups with 11 mice per group, based on proteinuria level, anti-dsDNA IgG and body weight. […] Treatments were administered by oral gavage (p.o.) in a volume of 10 ml/kg body weight.
# During the experimental period, the condition and mortality of the mice were recorded every day. Body weight for each animal was recorded twice per week.
# Proteinuria was measured by determination of urine albumin weekly using URIT 1 vp strips (URIT, China), and was scored on a 0-4 scale with scored as follows: 0=trace, 1≥30 mg/dLl, 2≥100 mg/dL, 3≥300 mg/dLl, and 4≥500 mg/dL.
# At the end of the study, blood was collected from the orbital venous sinus under isoflurane/oxygen anesthesia. The serum samples were prepared and analyzed for BUN level in serum. An anti-dsDNA IgG ELISA kit (Chondrex, Inc., Cat. 3031) was used to quantitate IgG level to anti-dsDNA IgG in sera from individual mice.
# Mice were euthanized using carbon dioxide, spleen and body weight were measured at the end of the study. Spleen index (ratio of spleen weight to body weight) was calculated.
# The kidneys were collected and preserved in 10% NBF, the tissues were trimmed, dehydrated, embedded in paraffin, sectioned (˜3 μm) and stained with HE. The histopathology exam was performed.
# The difference between the mean values of proteinuria level, spleen-index, BUN level, kidney histopathology score and anti-dsDNA IgG level in treatment and vehicle group was analyzed for significance using One-way ANOVA (followed by Dunnett's test). P<0.05 was considered statistically significant.
# [4] = Plasma drug exposure at steady state in MRL/lpr mice; type: in vivo, mouse; settings: 1.5-50 mg/kg BID oral
# Procedure: Plasma was collected by centrifugation at 5, 600 rpm for 7 minutes and was kept frozen at −80° C. until analysis. Bioanalysis was conducted at 3D BioOptima Co., Ltd. (Suzhou, China).
# [5] = Compound 1 10 mg/kg BID p.o., day 96
# [6] = Compound 1 3 and 10 mg/kg BID p.o.
# [7] = 1.5, 5, 15 and 50 mg/kg BID oral, end of study
# [8] = MMF 100 mg/kg QD p.o., compared with the control group
structure (smiles),measurement,setting,value
"C=CC(=O)N1CCC([C@@H]2CCNc3c(C(N)=O)c(-c4ccc(Oc5ccccc5)cc4)nn32)CC1 [Compound 1, (S)-7-(1-acryloylpiperidin-4-yl)-2-(4-phenoxyphenyl)-4,5,6,7-tetra-hydropyrazolo[1,5-a]pyrimidine-3-carboxamide]",Secretion of IL-10 (serum level),[1]; [5],dramatically inhibited
same,Secretion of TNFα (serum level),[1]; [5],dramatically inhibited
same,Renal histopathology score,[1]; Compound 1 0.1-10 mg/kg BID p.o.,inhibited renal histopathology score in a dose-dependent manner
same,Proteinuria,"[1]; Compound 1 0.1-10 mg/kg BID p.o., vs. vehicle",dose-dependently suppressed
same,Proteinuria,"[1]; Compound 1 0.1 and 0.3 mg/kg BID p.o., compared with MMF 100 mg/kg QD",less effective than MMF
same,Proteinuria,"[1]; Compound 1 1, 3 and 10 mg/kg BID p.o., compared with MMF 100 mg/kg QD",no significant difference when compared with MMF
same,Spleen weight,[1]; [6],dramatically inhibited
same,Blood urea nitrogen (BUN) level,[1]; [6],remarkably inhibited
same,Anti-lupus effect compared with MMF,[1]; Compound 1 orally 3 and 10 mg/kg BID,stronger anti-lupus effect
same,Anti-lupus effect (overall),"[1]; NZBWF1/J lupus mouse model, all results",strong anti-lupus effect
same,Level of anti-dsDNA IgG in serum,"SLE-cGVHD mouse model; 10 and 20 mg/kg BID oral, day 15 of treatment, ELISA",inhibited
same,Proteinuria level,"SLE-cGVHD mouse model; 10 and 20 mg/kg BID oral, day 22 of treatment",significantly reduced
same,Disease (overall),"SLE-cGVHD mouse model; SLE-cGvHD mouse model, all results",ameliorated disease
same,Drug exposure AUC0-8h,[2],increased dose dependently
same,Drug exposure Cmax,[2],increased dose dependently
same,Efficacy (dose dependence),[3]; 1.5 mg/kg to 50 mg/kg twice a day,dose-dependent efficacy
same,Protection from lupus nephritis,"[3]; 1.5, 5, 15 and 50 mg/kg BID oral, 17 weeks",significantly protected
same,Proteinuria,"[3]; 1.5, 5, 15 and 50 mg/kg BID oral, day 118",significantly decreased
same,Kidney histopathological score,[3]; [7],reduced
same,Serum blood urea nitrogen (BUN) level,[3]; [7],significantly decreased
same,Anti-dsDNA IgG level in serum,"[3]; 1.5, 5, 15 and 50 mg/kg BID oral, end of study, compared with vehicle",inhibited
same,Anti-lupus effect (overall),"[3]; MRL/lpr mouse model, all results",strong anti-lupus effect
same,Drug exposure AUC0-8h,[4],increased dose independently
same,Drug exposure Cmax,[4],increased dose independently
"COc1c(C)c2c(c(O)c1C/C=C(\C)CCC(=O)OCCN1CCOCC1)C(=O)OC2 [MMF, mycophenolate mofetil, reference compound]",Renal histopathology score,[1]; MMF 100 mg/kg QD p.o.,not able to significantly inhibit
same,Spleen mass,[1]; MMF 100 mg/kg QD p.o.,not able to significantly inhibit
same,IL-10 level in serum,[1]; [8],lower level of TNFα and IL-10 with no statistical significance
same,TNFα level in serum,[1]; [8],lower level of TNFα and IL-10 with no statistical significance
same,Blood urea nitrogen (BUN) level,[1]; MMF 100 mg/kg QD p.o.,remarkably inhibited

# Source: US20250073238A1, “METHODS OF TREATING SYSTEMIC LUPUS ERYTHEMATOSUS USING BTK INHIBITORS” (BeiGene Switzerland GmbH, priority 2020, published 2025)
